Test results published in patent publication US20040082757A1, “Echinocandin derivatives, pharmaceutical compositions containing same and use thereof as drugs” (priority 2001, published 2004).
Numbered stars: 1 amine (or outer) side, 2 acyl side, 3 side chain; on linkers, the order of the positions; unused ones are H or OH. Bridge positions count the residues as written; N and C are the ends. Square brackets hold non-standard residues; d marks the D form. Peptide text beside a SMILES is read from it. * marks the point of attachment. ξ: configuration not given here. ξhTyr(βξ-OH,3-OSO3H) = NC(C(=O)O)C(O)Cc1ccc(O)c(OS(=O)(=O)O)c1; ξOrn(4,5-diOH) = O=C(C(CC(O)C(O)N[*:3])N[*:1])[*:2]; X3 = CCCCCOc1ccc(-c2cc(-c3ccc(C(=O)*)cc3)no2)cc1; ξOrn(4ξ-OH) = O=C(C(CC(O)CN[*:3])N[*:1])[*:2]; ξPro(3ξ-OH,4ξ-Me) = CC1CNC(C(=O)O)C1O; X2 = NC(=O)CC(O)C(N[*:1])C(=O)[*:2]; X1 = O=C(C1C(O)C(O)CN1[*:1])[*:2]; ξT = CC(O)C(N)C(=O)O

Tested on: Candida albicans FP 633
Experiment: Antimicrobial activity test: antifungal susceptibility by microdilution method (NCCLS M27-A), MIC
Type: cell-based
Details: FP633, RPMI 1640, pH 7.0, 35° C., lowest concentration with no visible growth
Experimental: The antifungal susceptibility assays were performed by the microdilution method according to M27-A guidelines recommended by the National Committee for Clinical Laboratory Standards (NCCLS) to determine the MICs of the compounds. RPMI 1640 medium with L-glutamine, without sodium bicarbonate and buffered with 165 mM morpholinepropanesulfonic acid buffer (pH 7.0) was used as a test medium. Inoculum suspension of 10^6 CFU/ml were prepared by a hemocytometric procedure and diluted to obtain an inoculum size of approximately 0.5×10^3 to 2.5×10^3 CFU/ml. Microplates were incubated at 35° C., and readings were taken when good growth in the growth control. The MICs were defined as the lowest concentrations at which no visible growth was observed.

MIC [µg/mL] | SMILES
< 0.02 | CCCCCOc1ccc(-c2cc(-c3ccc(C(=O)NC4CC(O)C(O)NC(=O)C5C(O)C(C)CN5C(=O)C(C(O)CC(N)=O)NC(=O)C(C(O)Cc5ccc(O)c(OS(=O)(=O)[O-])c5)NC(=O)C5C(O)C(O)CN5C(=O)C(C(C)O)NC4=O)cc3)no2)cc1.[Na+] (stereo not drawn) [Object Compound (9)]
< 0.1 | CCCCCOc1ccc(-c2cc(-c3ccc(C(=O)NC4CC(O)CNC(=O)C5C(O)C(C)CN5C(=O)C(C(O)CC(N)=O)NC(=O)C(C(O)Cc5ccc(O)c(OS(=O)(=O)[O-])c5)NC(=O)C5CCCN5C(=O)C(CO)NC4=O)cc3)no2)cc1.[Na+] (stereo not drawn) [Object Compound (10)] (X3-[ξOrn(4ξ-OH)]SP[ξhTyr(βξ-OH,3-OSO3H)][X2][ξPro(3ξ-OH,4ξ-Me)]; lactam 1-C; configuration not given here)
< 0.1 | CCCCCOc1ccc(-c2cc(-c3ccc(C(=O)NC4CC(O)CNC(=O)C5C(O)C(C)CN5C(=O)C(C(O)CC(N)=O)NC(=O)C(C(O)Cc5ccc(O)c(OS(=O)(=O)[O-])c5)NC(=O)C5CCCN5C(=O)C(C(C)O)NC4=O)cc3)no2)cc1.[Na+] (stereo not drawn) [Object Compound (8)] (X3-[ξOrn(4ξ-OH)]TP[ξhTyr(βξ-OH,3-OSO3H)][X2][ξPro(3ξ-OH,4ξ-Me)]; lactam 1-C; configuration not given here)

Tested on: not given
Experiment: not given
Details: not given

melting point | SMILES
250 to 260 °C (dec.) | CC(O)C1NC(=O)C(N)CC(O)CNC(=O)C2C(O)C(C)CN2C(=O)C(C(O)CC(N)=O)NC(=O)C(C(O)Cc2ccc(O)c(OS(=O)(=O)O)c2)NC(=O)C2CCCN2C1=O (stereo not drawn) [Object Compound (1)] (H-[ξOrn(4ξ-OH)]TP[ξhTyr(βξ-OH,3-OSO3H)][X2][ξPro(3ξ-OH,4ξ-Me)]; lactam 1-C; configuration not given here)
255 to 260 °C (dec.) | CC1CN2C(=O)C(C(O)CC(N)=O)NC(=O)C(C(O)Cc3ccc(O)c(OS(=O)(=O)O)c3)NC(=O)C3CCCN3C(=O)C(CO)NC(=O)C(N)CC(O)CNC(=O)C2C1O (stereo not drawn) [Object Compound (3)] (H-[ξOrn(4ξ-OH)]SP[ξhTyr(βξ-OH,3-OSO3H)][X2][ξPro(3ξ-OH,4ξ-Me)]; lactam 1-C; configuration not given here)
215 to 220 °C (dec.) | CC(O)C1NC(=O)C(N)CC(O)C(O)NC(=O)C2C(O)C(C)CN2C(=O)C(C(O)CC(N)=O)NC(=O)C(C(O)Cc2ccc(O)c(OS(=O)(=O)O)c2)NC(=O)C2C(O)C(O)CN2C1=O (stereo not drawn) [Object Compound (2)] (H-[ξOrn(4,5-diOH)][ξT][X1][ξhTyr(βξ-OH,3-OSO3H)][X2][ξPro(3ξ-OH,4ξ-Me)]; lactam 1-C)
